Results reported in article PMC12029309, “Synthesis and Antifungal Activity of 1,2,4-Oxadiazole Derivatives” (Molecules, 2025).
≈ marks a conversion by molar mass, not a printed value.

What was measured:
Format in all cases: cell-based
MCF-7 cell line = assay: MTT cytotoxicity evaluation on MCF-7 cells; settings: 100 μM, 24 h
Procedure: (§1) Cells were incubated at 37 °C in an incubator with 5% CO2. Cell viability was determined using the MTT assay. Briefly, MCF-7 cell lines were seeded at 5000–8000 cells/well in 96-well plates. […] Following a continuous 24 h of incubation, the culture medium was replaced by 90 μL fresh culture medium, and 10 μL MTT solution was added.

F. graminearum = assay: microbe, parasite or virus in culture; settings: Fusarium graminearum; for inhibition at 50 µg/mL: read-out: The Inhibition Rate (%) F. graminearum
R. solani = assay: microbe, parasite or virus in culture; settings: Rhizoctonia solani, read-out: The Inhibition Rate (%) R. solani
E. turcicum = assay: Mycelial growth inhibition test in vitro (E. turcicum); settings: Exserohilum turcicum; 50 μg/mL, mean ± SD of three replicates; read-out: The Inhibition Rate (%) E. turcicum
B. cinerea = assay: Mycelial growth inhibition test in vitro (B. cinerea); settings: Botrytis cinerea; 50 μg/mL, mean ± SD of three replicates; read-out: The Inhibition Rate (%) B. cinerea
Procedure: (§2) The antifungal activity of the target compound was tested by the mycelial growth inhibition rate method. The compounds were detected at a concentration of 50 μg/mL, and carbendazim was used as the positive control. The antifungal activity was carried out according to literature reports. After drilling the mycelium (3 mm), it was inoculated into the PDA medium containing compounds, and the Petri dish was put into the incubator at 25 °C for 12-48 h; then, the colony diameter was measured with 50 index vernier caliper by the cross method, and the data were recorded. […] • A: The average diameter of the blank medium colony. • B: Diameter of mushroom cake (3 mm). • C: The average diameter of the colonies in the medium containing compound.

C. capsica = assay: Mycelial growth inhibition test in vitro (C. capsica); settings: Colletotrichum; 50 μg/mL, mean ± SD of three replicates; read-out: The Inhibition Rate (%) C. capsica
Procedure: as §2, with “compound. […] The PDA medium containing different concentrations of the compound was prepared by the two-fold dilution method, the final concentration of the compound in the medium was adjusted to 0-100.00 μg/mL, and three parallel samples were set for each concentration. […] The toxicity regression equation of the tested compound was obtained, taking the logarithm of compound concentration (lgc) as the independent variable (x) and the probability value of inhibition rate as the dependent variable (y), and the EC50 value of each tested compound was calculated.” for “compound.”

[1] = MTT cytotoxicity evaluation on MCF-7 cells; settings: human, range 0~100 μM
Procedure: as §1

Row | SMILES | cell survival rate of MCF-7 cells (MCF-7 cell line) | inhibition at 50 µg/mL (F. graminearum) [%] | inhibition at 50 µg/mL (R. solani) [%] | inhibition at 50 µg/mL (E. turcicum) [%] | inhibition at 50 µg/mL (B. cinerea) [%] | inhibition at 50 µg/mL (C. capsica) [%] | IC50 at 24 h [1] [µM] | EC50 (F. graminearum; read-out: EC50 (μg/mL) F. graminearum) [µg/mL]
1 | COc1ccc(-c2nc(-c3cc(OC)c(OC)c(OC)c3)no2)cc1OC [Compound 4t, 5-(3,4-Dimethoxyphenyl)-3-(3,4,5-trimethoxyphenyl)-1,2,4-oxadiazole] | significant cell proliferation | 28.3 ± 2.19 | < 10 | < 10 | < 10 | – | – | –
2 | COc1ccc(-c2noc(-c3ccc(C(C)(C)C)cc3)n2)cc1 [Compound 4l, 5-(4-(tert-Butyl)phenyl)-3-(4-methoxyphenyl)-1,2,4-oxadiazole] | significant cell proliferation | 27.6 ± 1.78 | < 10 | 24.2 ± 3.77 | < 10 | < 10 | – | –
3 | COc1cc(/C=C/c2nc(-c3ccccc3)no2)cc(OC)c1OC [Compound 5b, (E)-3-Phenyl-5-(3,4,5-trimethoxystyryl)-1,2,4-oxadiazole] | – | 36.1 ± 1.67 | 21.2 ± 2.78 | 31.8 ± 1.44 | 30.2 ± 6.4 | 20.6 ± 4.48 | ≥ 100 | –
4 | COc1cc(-c2noc(-c3ccc(C(C)(C)C)cc3)n2)cc(OC)c1OC [Compound 4u, 5-(4-(tert-Butyl)phenyl)-3-(3,4,5-trimethoxyphenyl)-1,2,4-oxadiazole] | – | < 10 | < 10 | < 10 | < 10 | < 10 | ≥ 100 | –
5 | COc1ccc(-c2noc(-c3ccc(OC)c(OC)c3)n2)cc1 [Compound 4k, 5-(3,4-Dimethoxyphenyl)-3-(4-methoxyphenyl)-1,2,4-oxadiazole] | – | 21.7 ± 2.53 | 22.6 ± 8.85 | < 10 | < 10 | < 10 | – | –
6 | Clc1ccc(/C=C/c2nc(-c3ccccc3)no2)cc1 [Compound 5c, (E)-5-(4-Chlorostyryl)-3-phenyl-1,2,4-oxadiazole] | significant cell proliferation | < 10 | < 10 | < 10 | < 10 | – | – | –
7 | O=[N+]([O-])c1ccc(-c2nc(-c3ccccc3)no2)cc1 [Compound 4i, 5-(4-Nitrophenyl)-3-phenyl-1,2,4-oxadiazole] | significant cell proliferation | < 10 | < 10 | < 10 | < 10 | – | – | –
8 | COc1cc(-c2noc(-c3ccc(Cl)cc3)n2)cc(OC)c1OC [Compound 4s, 5-(4-Chlorophenyl)-3-(3,4,5-trimethoxyphenyl)-1,2,4-oxadiazole] | – | < 10 | < 10 | < 10 | < 10 | < 10 | – | –
9 | COc1ccc(-c2noc(-c3ccc(Cl)cc3)n2)cc1OC [Compound 4m, 5-(4-Chlorophenyl)-3-(3,4-dimethoxyphenyl)-1,2,4-oxadiazole] | – | < 10 | 11.7 ± 5.11 | 15.2 ± 0.77 | – | – | – | –
10 | C(=C\c1nc(-c2ccccc2)no1)/c1ccccc1 [Compound 5a, (E)-3-Phenyl-5-styryl-1,2,4-oxadiazole] | – | < 10 | 14.5 ± 6.32 | 21.1 ± 3.85 | < 10 | – | – | –
11 | Oc1cccc(-c2nc(-c3ccccc3)no2)c1 [Compound 4d, 3-(3-Phenyl-1,2,4-oxadiazol-5-yl) phenol] | – | 40.2 ± 1.5 | 18.6 ± 2.71 | 46.1 ± 0.74 | 36.8 ± 9.53 | 22.3 ± 2.97 | ≥ 100 | –
12 | COc1ccc(-c2nc(-c3ccc(OC)c(OC)c3)no2)cc1 [Compound 4w, 3-(3,4-Dimethoxyphenyl)-5-(4-methoxyphenyl)-1,2,4-oxadiazole] | – | < 10 | < 10 | < 10 | < 10 | < 10 | – | –
13 | COc1cc(-c2noc(-c3cccc(O)c3)n2)cc(OC)c1OC [Compound 4v, 3-(3-(3,4,5-Trimethoxyphenyl)-1,2,4-oxadiazol-5-yl) phenol] | – | 26.1 ± 9.47 | < 10 | 15.5 ± 3.53 | < 10 | < 10 | – | –
14 | COc1ccc(-c2noc(/C=C/c3ccccc3)n2)cc1 [Compound 5d, (E)-3-(4-Methoxyphenyl)-5-styryl-1,2,4-oxadiazole] | – | 19 ± 7.4 | < 10 | 19.2 ± 2.39 | 21.7 ± 6.82 | – | – | –
15 | COc1ccc(-c2noc(-c3ccc(Cl)cc3)n2)cc1 [Compound 4j, 5-(4-Chlorophenyl)-3-(4-methoxyphenyl)-1,2,4-oxadiazole] | – | < 10 | < 10 | < 10 | < 10 | < 10 | – | –
16 | CC(C)(C)c1ccc(-c2nc(-c3ccccc3)no2)cc1 [Compound 4c, 5-(4-(tert-Butyl)phenyl)-3-phenyl-1,2,4-oxadiazole] | – | 33.5 ± 3.88 | 10.7 ± 3.54 | 30.1 ± 1.95 | < 10 | < 10 | – | –
17 | COc1ccc(-c2noc(-c3cc(O)cc(O)c3)n2)cc1OC [Compound 4p, 5-(3-(3,4-Dimethoxyphenyl)-1,2,4-oxadiazol-5-yl)benzene-1,3-diol] | significant cell proliferation | < 10 | < 10 | 11.2 ± 1.91 | < 10 | 0 | – | –
18 | COc1ccc(-c2noc(-c3cccc(O)c3)n2)cc1OC [Compound 4o, 3-(3-(3,4-Dimethoxyphenyl)-1,2,4-oxadiazol-5-yl)phenol] | – | 55.1 ± 2.99 | 24.4 ± 1.65 | 28.1 ± 1.65 | < 10 | 20.8 ± 0.59 | – | –
19 | FC(F)(F)c1ccc(-c2nc(-c3ccccc3)no2)cc1 [Compound 4h, 3-Phenyl-5-(4-(trifluoromethyl)phenyl)-1,2,4-oxadiazole] | – | 29 ± 8.54 | < 10 | < 10 | < 10 | < 10 | – | –
20 | COc1ccc(-c2nc(-c3ccccc3)no2)cc1OC [Compound 4b, 5-(3,4-Dimethoxyphenyl)-3-phenyl-1,2,4-oxadiazole] | – | 23.8 ± 7.22 | 18.7 ± 5.82 | 60.4 ± 1.68 | < 10 | < 10 | – | –
21 | Clc1ccc(-c2nc(-c3ccccc3)no2)cc1 [Compound 4a, 5-(4-Chlorophenyl)-3-phenyl-1,2,4-oxadiazole] | – | 19.1 ± 7.15 | < 10 | 17.5 ± 2.68 | < 10 | – | – | –
22 | Oc1cc(O)cc(-c2nc(-c3ccccc3)no2)c1 [Compound 4e, 5-(3-Phenyl-1,2,4-oxadiazol-5-yl) benzene-1,3-diol] | – | 30.1 ± 4.51 | 16.6 ± 1.47 | 26.5 ± 3.09 | < 10 | 18.8 ± 3.1 | ≥ 100 | –
23 | Oc1cc(-c2nc(-c3ccccc3)no2)cc(O)c1O [Compound 4g, 5-(3-Phenyl-1,2,4-oxadiazol-5-yl) benzene-1,2,3-triol] | – | 56.9 ± 6.74 | 39.9 ± 3.44 | 38.7 ± 1 | < 10 | 47.6 ± 1.05 | – | 80.5 (≈ 298 µM)
24 | COc1ccc(-c2noc(-c3ccc(C(C)(C)C)cc3)n2)cc1OC [Compound 4n, 5-(4-(tert-Butyl)phenyl)-3-(3,4-dimethoxyphenyl)-1,2,4-oxadiazole] | – | < 10 | < 10 | 29.8 ± 1.26 | < 10 | < 10 | ≥ 100 | –
